pIC50: −log10 of the molar value. Where a SMILES comes first, the peptide text is derived from it. Where no end group is shown, it is not given here. [ ]: non-standard residue; d: D form. The star is where a group is joined. Sta = CC(C)C[C@H](N)[C@@H](O)CC(=O)O; Isovaleryl = CC(C)CC(=O)*

In the first experiment the target is T1, Endothelin-Converting Enzyme (Sus scrofa, UniProt A0A8W4FBH0).
T1 construct: 1.0% Triton X-100 was added to solubilize enzyme activity; from tissue; host or cells: pig lung, solubilised 100,000×G membrane fraction
T1 sequence (A0A8W4FBH0 1-751): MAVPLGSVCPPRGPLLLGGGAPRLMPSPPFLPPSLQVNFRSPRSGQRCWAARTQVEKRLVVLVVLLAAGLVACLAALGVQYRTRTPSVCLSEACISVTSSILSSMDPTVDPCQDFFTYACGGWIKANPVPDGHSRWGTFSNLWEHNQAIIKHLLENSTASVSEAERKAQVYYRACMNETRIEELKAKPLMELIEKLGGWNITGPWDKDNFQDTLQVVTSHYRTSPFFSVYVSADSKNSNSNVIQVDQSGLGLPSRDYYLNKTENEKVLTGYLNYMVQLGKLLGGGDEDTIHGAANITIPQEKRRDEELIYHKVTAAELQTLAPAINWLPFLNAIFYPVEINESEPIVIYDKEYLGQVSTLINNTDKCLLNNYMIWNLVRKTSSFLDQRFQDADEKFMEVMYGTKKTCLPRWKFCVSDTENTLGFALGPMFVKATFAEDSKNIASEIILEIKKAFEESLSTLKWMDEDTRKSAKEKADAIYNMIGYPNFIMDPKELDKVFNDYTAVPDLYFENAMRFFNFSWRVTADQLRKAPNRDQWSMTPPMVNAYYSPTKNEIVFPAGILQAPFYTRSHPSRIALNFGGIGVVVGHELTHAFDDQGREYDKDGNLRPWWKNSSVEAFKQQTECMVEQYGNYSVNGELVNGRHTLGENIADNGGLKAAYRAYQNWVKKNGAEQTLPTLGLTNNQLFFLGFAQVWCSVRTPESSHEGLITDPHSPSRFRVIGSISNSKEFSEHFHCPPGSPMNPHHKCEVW
Put plainly: Measurement of endothelin-converting enzyme inhibiting activity of phosphonic acid derivatives (pig big endothelin I (1-39) substrate, endothelin I sandwich enzyme immunoassay). The experiment is classed as biochemical. Conditions: 37° C., 1 hour, pH 7.2, pig lung solubilized membrane fraction. The procedure: Measurement of Endothelin-Converting Enzyme Inhibiting Activity of Phosphonic Acid Amide Derivatives
In 1.5-ml centrifugal tube (BIO-BIK), 80 μl of 50 mM bis-Trispropane-hydrochloric acid buffer (pH 7.2) supplemented with 1.0 mg/ml bovine serum albumin, 0.1M sodium chloride, 1.0 mM phenylmethanesulfonyl fluoride (PMSF, Wako Pure Cnemical Industries), 1.0 μg/ml leupeptin (Peptide Institute Inc.), 1.0 μg/ml chymostatin (Peptide Institute Inc.), 1.0 μg/ml pepstatin A (Peptide Institute Inc.), 1.0 μM E-64 (Peptide Institute Inc.), 1.0 μm thiorphan (Sigma) and 1.0 μM angiotensin-converting enzyme inhibitor [CV-5975, Inada et al., Japanese Journal of Pharmacology, 47, 135-141 (1988)], 5 μl of a sample solution to be tested (an aqueous solution or an aqueous solution containing 2% dimethyl sulfoxide) or 5 μl of distilled water for the control plot, and 10 μl of an endothelin-converting enzyme sample prepared as described in the following reference example were placed. After standing at 37° C. for 30 minutes, 5 μl of a substrate solution [physiological phosphate buffer (PBS, containing 0.2 g of potassium chloride, 0.2 g of potassium dihydrogenphosphate, 8.0 g of sodium chloride and 1.14 g of disodium hydrogenphosphate in 1,000 ml of distilled water) supplemented with 1.0×10^-6 M pig big endothelin I (1-39) (Peptide Institute Inc.) and 1.0 mg/ml bovine serum albumin] was added thereto to initiate enzyme reaction. After reaction at 37° C. for 1 hour, the reaction mixture was boiled in boiling water for 5 minutes, thereby terminating the reaction: The resulting insoluble material was removed by centrifugation, and endothelin I (1-21) produced by the enzyme reaction contained in 10 μl of the supernatant was quantified by the endothelin I-specific sandwich enzyme immunoassay method already established [Suzuki et al., J. Immuno. Meth., 188, 245-250 (1989)], and compared with the amount of endothelin produced in the control plot to evaluate the enzyme inhibiting activity.
As endothelin-converting enzymes existing in organisms, two kinds of metalloenzymes different in enzymological properties are generally known. One exits in the cytoplasms, and the other is membrane-bound. The latter is characterized by that it is inhibited with phosphoramidon known as an inhibitor for metalloproteases [Matsumura et al., FEBS Lett., 272, 166-170 (1990)]. The endothelin-converting enzyme in the present invention means the membrane-bound enzyme of these two kinds of enzymes.
(§1) About 500 g of the pig lung (of one pig) was sliced and disrupted in 2.0 liter of PBS supplemented with 0.05% sodium azide, 1.0 mM dithiothreitol, 1.0 mM PMSF, 1.0 μg/ml leupeptin, 1.0 μg/ml chymostatin, 1.0 μg/ml pepstatin A and 1.0 μM E-64, and then homogenized (1 minute×5 times) by a Polytron mixer ([…]). The centrifuged supernatant (240×G, 5 minutes) was further centrifuged at 10,000×G for 15 minutes, and the resulting supernatant was subjected to ultracentrifuge (100,000×G, 90 minutes) to obtain membrane fraction as a precipitate. To this precipitate, 1.0% Triton X-100 was added to solubilize enzyme activity. […] This was diluted to 2.0 mg of protein/ml to use for assaying the activity of enzyme inhibitors.
In general, pIC50 refers to the negative decadic logarithm of the IC50, by convention in mol/L. A lower pIC50 goes with a large IC50. Take `CC(C)C[C@H](NP(=O)(O)Cc1cccc2ccccc12)C(=O)N[C@@H](Cc1c[nH]c2ccccc12)C(=O)O` [N-(1-Naphthylmethylphosphonyl)-Leu-Trp.2Na]: the pIC50 is 6.70.
The same measure, in the same setting: the figure for `CC(C)C[C@H](NP(=O)(O)Cc1ccc2ccccc2c1)C(=O)N[C@@H](Cc1c[nH]c2ccccc12)C(=O)O` [N-(2-Naphthylmethylphosphonyl)-Leu-Trp.2Na] is 6.00.
Still for that read-out and setting: the figure for `CC(C)CCP(=O)(O)N[C@@H](CC(C)C)C(=O)N[C@@H](Cc1c[nH]c2ccccc12)C(=O)O` [N-(Isoamylphosphonyl)-Leu--Trp.2Na, N-(Isoamylphosphonyl)-Leu-Trp.2Na] is 6.15; for `O=C(O)[C@H](Cc1c[nH]c2ccccc12)NC(=O)[C@H](CC1CCCCC1)NP(=O)(O)CCc1ccccc1` [N-(Phenethylphosphonyl)-Cha--Trp.2Na, N-(Phenethylphosphonyl)-Cha-Trp.2Na] it is 6.00.
`CC[C@H](C)[C@H](NP(=O)(O)CCc1ccccc1)C(=O)N[C@@H](Cc1c[nH]c2ccccc12)C(=O)O` [N-(Phenethylphosphonyl)-Ile--Trp.2Na, N-(Phenethylphosphonyl)-Ile-Trp.2Na]: the pIC50 was 5.92.
The same measure, in the same setting: in the case of `CC(C)C[C@H](NC(=O)[C@H](CC(C)C)NP(=O)(O)CCc1ccccc1)C(=O)O` [N-(Phenethylphosphonyl)-Leu--Leu.2Na, N-(Phenethylphosphonyl)-Leu-Leu.2Na] it was 5.32; in that of `CC(C)C[C@H](NP(=O)(O)CCc1ccccc1)C(=O)N[C@@H](Cc1ccccc1)C(=O)O` [N-(Phenethylphosphonyl)-Leu--Phe.2Na, N-(Phenethylphosphonyl)-Leu-Phe.2Na], 5.24; in that of `CC(C)C[C@H](NP(=O)(O)CCc1ccccc1)C(=O)N[C@@H](Cc1c[nH]c2ccccc12)C(=O)O` [N-(Phenethylphosphonyl)-Leu--Trp.2Na, N-(Phenethylphosphonyl)-Leu-Trp.2Na], 6.70.
On the same count and under the same terms, in the case of `CCCC[C@H](NP(=O)(O)CCc1ccccc1)C(=O)N[C@@H](Cc1c[nH]c2ccccc12)C(=O)O` [N-(Phenethylphosphonyl)-Nle--Trp.2Na, N-(Phenethylphosphonyl)-Nle-Trp.2Na] it was 5.85; in that of `O=C(O)[C@H](Cc1c[nH]c2ccccc12)NC(=O)[C@H](Cc1ccccc1)NP(=O)(O)CCc1ccccc1` [N-(Phenethylphosphonyl)-Phe--Trp.Na, N-(Phenethylphosphonyl)-Phe-Trp.2Na], 6.30; in that of `CC(C)[C@H](NP(=O)(O)CCc1ccccc1)C(=O)N[C@@H](Cc1c[nH]c2ccccc12)C(=O)O` [N-(Phenethylphosphonyl)-Val--Trp.2Na, N-(Phenethylphosphonyl)-Val-Trp.2Na], 5.55.
The same measure, in the same setting: the figure for `CC(C)C[C@H](NP(=O)(O)CCc1cccc2ccccc12)C(=O)N[C@@H](Cc1c[nH]c2ccccc12)C(=O)O` [N-[2-(1-Naphthyl)ethylphosphonyl]-Leu-Trp.2Na] is 6.40; for `CC(C)C[C@H](NP(=O)(O)CCc1ccc2ccccc2c1)C(=O)N[C@@H](Cc1c[nH]c2ccccc12)C(=O)O` [N-[2-(2-Naphthyl)ethylphosphonyl]-Leu-Trp.2Na] it is 7.00.

The target of the next experiment is T1, Endothelin-Converting Enzyme. Briefly: Kinetic coefficient (Lineweaver-Burk plot). Type of experiment: biochemical. Conditions: substrate pig big endothelin, read-out: Michaelis coefficient. How it is done: The Michaelis coefficient of this enzyme to pig big endothelin was calculated to be about 5×10^-6 M from the Lineweaver-Burk plot.
For the compound “pig big endothelin: substrate; pig big endothelin I (1-39) (Peptide Institute Inc.) (CSCSSLMDKECVYFCHLDIIWVNTPEHIVPYGLGSPSRS; ends and bridges not checked; cysteine pairing not given here; UniProt P09558 53-91, looked up, fragment)”, the Km was roughly 5 µM.

For a further experiment the target is unchanged. Put plainly: Inhibition effect of various protease inhibitors on endothelin-converting enzyme. Type of experiment: biochemical, pig. Conditions: Concentration 100 μM; read-out: Inhibiting Ratio (%). The procedure: as §1
For the compound `CC(C)C[C@H](NC(=O)[C@@H](NC(=O)N[C@@H](Cc1ccccc1)C(=O)O)[C@@H]1CCN=C(N)N1)C(=O)N[C@H](C=O)Cc1ccccc1` [Chymostatin], the inhibition at 100 µM was found to be 2%.
For `CC(C)C[C@H](NC(=O)[C@H]1O[C@@H]1C(=O)O)C(=O)NCCCCN=C(N)N` [Example E-64], the inhibition at 100 µM was 9%.
Regarding `CC(=O)N[C@@H](CC(C)C)C(=O)N[C@@H](CC(C)C)C(=O)N[C@H](C=O)CCCNC(=N)N` [Leupeptin], the inhibition at 100 µM was found to be 23%.
Still for that read-out and setting: the figure for `CC(C)CC(=O)N[C@H](C(=O)N[C@H](C(=O)N[C@@H](CC(C)C)[C@@H](O)CC(=O)N[C@@H](C)C(=O)N[C@@H](CC(C)C)[C@@H](O)CC(=O)O)C(C)C)C(C)C` [Pepstatin] (Isovaleryl-VV[Sta]A[Sta]-OH) is 20%; for `CC(C)C[C@H](NP(=O)(O)O[C@@H]1O[C@@H](C)[C@H](O)[C@@H](O)[C@H]1O)C(=O)N[C@@H](Cc1c[nH]c2ccccc12)C(=O)O` [Phosphoramidone] it is 70%.

The experiment is the same for the next values; noted with them: Concentration 1000 μM.
On to `O=S(=O)(F)Cc1ccccc1` [PMSF, phenylmethanesulfonyl fluoride], for which the “Inhibiting Ratio (%)” value amounted to 32%.

Still in this experiment, the particulars now being: Concentration 1000 μM; read-out: Inhibiting Ratio (%).
Turning to `O[C@H](CS)[C@H](O)CS` (racemic) [Dithiothreitol], the inhibition at 1000 µM was determined as 96%.
With `c1cnc2c(c1)ccc1cccnc12` [o-Phenanthroline], the inhibition at 1000 µM worked out at 92%.

Staying with this experiment, now noted: read-out: Inhibiting Ratio (%).
Consider `O=C(O)CN(CCN(CC(=O)O)CC(=O)O)CC(=O)O` [Ethylenediaminetetraacetic acid], for which the inhibition at 1000 µM is 70%.

The next experiment relates to membrane-bound endothelin-converting enzyme.
Test: not given
Conditions: FEBS Lett., 272, 166-170 (1990); cited from earlier work.
In the case of `CC(C)C[C@H](NP(=O)(O)O[C@@H]1O[C@@H](C)[C@H](O)[C@@H](O)[C@H]1O)C(=O)N[C@@H](Cc1c[nH]c2ccccc12)C(=O)O` [Phosphoramidone], the “inhibition of membrane-bound enzyme (in words)” value is “inhibited”.
